Target: Human TASK-1 channels (Homo sapiens (Human), UniProt O14649)
Experiment: Determination of the activity on the TASK-1 channel in Xenopus oocytes (two-microelectrode voltage clamp)
Format: cell-based
Details: for IC50: human TASK-1 expressed in Xenopus oocytes, room temperature, read-out: IC50 value for TASK-1 inhibition; for inhibition at 5 µM: compound concentration 5 μM
Method in brief: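 Xenopus oocytes were injected with human TASK-1 cRNA and recorded two days later by two-microelectrode voltage clamp, holding at −90 mV with 500 ms steps to 40 mV. Superfusion used ND96, pH 7.4, at room temperature, with rising compound concentrations; percentage inhibition of control current was fitted to a dose-response curve for IC50.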

Sequence of Human TASK-1 channels (O14649 whole entry): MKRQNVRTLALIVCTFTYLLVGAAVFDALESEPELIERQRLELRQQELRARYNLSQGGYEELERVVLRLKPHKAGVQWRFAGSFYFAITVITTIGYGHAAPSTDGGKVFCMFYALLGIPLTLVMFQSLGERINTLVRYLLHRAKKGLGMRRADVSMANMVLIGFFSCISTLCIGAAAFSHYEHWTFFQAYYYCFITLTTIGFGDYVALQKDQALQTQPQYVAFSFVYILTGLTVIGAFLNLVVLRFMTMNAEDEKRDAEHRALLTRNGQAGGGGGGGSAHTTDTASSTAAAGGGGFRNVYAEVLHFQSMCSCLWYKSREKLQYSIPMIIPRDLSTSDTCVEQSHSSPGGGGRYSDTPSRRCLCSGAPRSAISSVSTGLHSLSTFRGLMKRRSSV

SMILES	IC50	further results
CC[C@@H](NC(=O)c1cc(C(=O)NCc2c(C)noc2C)n2c1COCC2)c1ccccc1 [16pq, 3,4-Dihydro-1H-pyrrolo[2,1-c][1,4]oxazine-6,8-dicarboxylic acid 6-[(3,5-dimethyl-isoxazol-4-ylmethyl)-amide] 8-[((R)-1-phenyl-propyl)-amide]]	650 nM	–
CC[C@@H](NC(=O)c1cc(C(=O)N2CCC[C@@H]2C)n2c1COCC2)c1ccccc1Cl [16q, 6-((S)-2-Methyl-pyrrolidine-1-carbonyl)-3,4-dihydro-1H-pyrrolo[2,1-c][1,4]oxazine-8-carboxylic acid [(R)-1-(2-chloro-phenyl)-propyl]-amide]	64 nM	–
CC[C@@H](NC(=O)c1cc(C(=O)N2CCC[C@@H]2C)n2c1COCC2)c1cccnc1C(F)(F)F [16r, 6-((S)-2-Methyl-pyrrolidine-1-carbonyl)-3,4-dihydro-1H-pyrrolo[2,1-c][1,4]oxazine-8-carboxylic acid [(R)-1-(2-trifluoromethyl-pyridin-3-yl)-propyl]-amide]	1900 nM	–
CC[C@@H](NC(=O)c1cc(C(=O)N2CCC[C@@H]2C)n2c1COCC2)c1ccc(SC)nc1 [16ra, 6-((S)-2-Methyl-pyrrolidine-1-carbonyl)-3,4-dihydro-1H-pyrrolo[2,1-c][1,4]oxazine-8-carboxylic acid [(R)-1-(6-methylsulfanyl-pyridin-3-yl)-propyl]-amide]	–	inhibition at 5 µM: 60%
CC[C@@H](NC(=O)c1cc(C(=O)N2CCC[C@@H]2C)n2c1COCC2)c1ccc(Cl)s1 [16rb, 6-((S)-2-Methyl-pyrrolidine-1-carbonyl)-3,4-dihydro-1H-pyrrolo[2,1-c][1,4]oxazine-8-carboxylic acid [(R)-1-(5-chloro-thiophen-2-yl)-propyl]-amide]	230 nM	–
CC[C@@H](NC(=O)c1cc(C(=O)N2CCC[C@@H]2C)n2c1COCC2)c1cccs1 [16rc, 6-((S)-2-Methyl-pyrrolidine-1-carbonyl)-3,4-dihydro-1H-pyrrolo[2,1-c][1,4]oxazine-8-carboxylic acid ((R)-1-thiophen-2-yl-propyl)amide]	150 nM	–
CC[C@@H](NC(=O)c1cc(C(=O)N2CCC[C@@H]2C)n2c1COCC2)c1ccc(C#N)s1 [16rd, 6-((S)-2-Methyl-pyrrolidine-1-carbonyl)-3,4-dihydro-1H-pyrrolo[2,1-c][1,4]oxazine-8-carboxylic acid [(R)-1-(5-cyano-thiophen-2-yl)-propyl]-amide]	450 nM	–
CC[C@@H](NC(=O)c1cc(C(=O)N2CCC[C@@H]2C)n2c1COCC2)c1cnc(C#N)c(Cl)c1 [16rf, 6-((S)-2-Methyl-pyrrolidine-1-carbonyl)-3,4-dihydro-1H-pyrrolo[2,1-c][1,4]oxazine-8-carboxylic acid [(R)-1-(5-chloro-6-cyano-pyridin-3-yl)-propyl]-amide]	1000 nM	–
CC[C@@H](NC(=O)c1cc(C(=O)N2CCC[C@@H]2COC(C)=O)n2c1COCC2)c1ccccc1 [16rg, acetic acid (R)-1-[8-((R)-1-phenyl-propylcarbamoyl)-3,4-dihydro-1H-pyrrolo[2,1-c][1,4]oxazine-6-carbonyl]-pyrrolidin-2-ylmethyl ester]	110 nM	–
CC[C@@H](NC(=O)c1cc(C(=O)N[C@H](CC)c2cccc(O)n2)n2c1COCC2)c1ccccc1 [16rh, 3,4-Dihydro-1H-pyrrolo[2,1-c][1,4]oxazine-6,8-dicarboxylic acid 6-{[(R)-1-(6-hydroxy-pyridin-2-yl)-propyl]-amide} 8-[((R)-1-phenyl-propyl)-amide]]	240 nM	–
CC[C@@H](NC(=O)c1cc(C(=O)N[C@H](CC)c2cccc(NS(C)(=O)=O)c2)n2c1COCC2)c1ccccc1 [16ri, 3,4-Dihydro-1H-pyrrolo[2,1-c][1,4]oxazine-6,8-dicarboxylic acid 6-{[(R)-1-(3-methanesulfonylamino-phenyl)-propyl]-amide} 8-[((R)-1-phenyl-propyl)-amide]]	4300 nM	–
CC[C@@H](NC(=O)c1cc(C(=O)NC(C)c2cccc(S(=O)(=O)N(C)C)c2)n2c1COCC2)c1ccccc1 (stereo partly drawn) [16rj, 3,4-Dihydro-1H-pyrrolo[2,1-c][1,4]oxazine-6,8-dicarboxylic acid 6-{[1-(3-dimethylsulfamoyl-phenyl)-ethyl]-amide} 8-[((R)-1-phenyl-propyl)-amide]]	1100 nM	–
CC[C@@H](NC(=O)c1cc(C(=O)N(C)[C@@H](C)C(=O)N(C)C)n2c1COCC2)c1ccccc1 [16rk, 3,4-dihydro-1H-pyrrolo[2,1-c][1,4]oxazine-6,8-dicarboxylic acid 6-[((S)-1-dimethylcarbamoyl-ethyl)methyl-amide] 8-[((R)-1-phenyl-propyl)-amide]]	–	inhibition at 10 µM (compound concentration 10 μM (footnote a)): 70%
CC[C@@H](NC(=O)c1cc(C(=O)N(C)[C@@H](C)C(=O)NC(C)C)n2c1COCC2)c1ccccc1 [16rl]	4500 nM	–
CC[C@@H](NC(=O)c1cc(C(=O)N[C@H](CC)c2cccc(C(=O)O)c2)n2c1COCC2)c1ccccc1 [16rm, 3-((R)-1-{[8-((R)-1-Phenyl-propylcarbamoyl)-3,4-dihydro-1H-pyrrolo[2,1-c][1,4]oxazine-6-carbonyl]-amino}-propyl)-benzoic acid]	4900 nM	–
CC[C@@H](NC(=O)c1cc(C(=O)NC(C)c2nnn(C)n2)n2c1COCC2)c1ccccc1 (stereo partly drawn) [16rn, 3,4-Dihydro-1H-pyrrolo[2,1-c][1,4]oxazine-6,8-dicarboxylic acid 6-{[1-(2-methyl-2H-tetrazol-5-yl)-ethyl]-amide} 8-[((R)-1-phenyl-propyl)-amide]]	180 nM	–
CC[C@@H](NC(=O)c1cc(C(=O)NC(C)c2nnnn2C)n2c1COCC2)c1ccccc1 (stereo partly drawn) [16ro, 3,4-dihydro-1H-pyrrolo[2,1-c][1,4]oxazine-6,8-dicarboxylic acid 6-{[1-(1-methyl-1H-tetrazol-5-yl)-ethyl]-amide} 8-[((R)-1-phenyl-propyl)-amide]]	2800 nM	–
CC[C@@H](NC(=O)c1cc(C(=O)N(CC)Cc2nnn(C)n2)n2c1COCC2)c1ccccc1 [16rp, 3,4-Dihydro-1H-pyrrolo[2,1-c][1,4]oxazine-6,8-dicarboxylic acid 6-[ethyl-(2-methyl-2H-tetrazol-5-ylmethyl)-amide] 8-[((R)-1-phenyl-propyl)-amide]]	450 nM	–
CC[C@@H](NC(=O)c1cc(C(=O)NC(C)c2nnn(CC)n2)n2c1COCC2)c1ccccc1 (stereo partly drawn) [16rq, 3,4-Dihydro-1H-pyrrolo[2,1-c][1,4]oxazine-6,8-dicarboxylic acid 6-{[1-(2-ethyl-2H-tetrazol-5-yl)-ethyl]-amide} 8-[((R)-1-phenyl-propyl)-amide]]	750 nM	–
CC[C@@H](NC(=O)c1cc(C(=O)NC(C)c2nnnn2CC)n2c1COCC2)c1ccccc1 (stereo partly drawn) [16rr, 3,4-Dihydro-1H-pyrrolo[2,1-c][1,4]oxazine-6,8-dicarboxylic acid 6-{[1-(1-ethyl-1H-tetrazol-5-yl)-ethyl]-amide} 8-[((R)-1-phenyl-propyl)-amide]]	–	inhibition at 5 µM: 71%
CC[C@@H](NC(=O)c1cc(C(=O)NCc2nnn(C)n2)n2c1COCC2)c1ccccc1 [16rs, 3,4-Dihydro-1H-pyrrolo[2,1-c][1,4]oxazine-6,8-dicarboxylic acid 6-[(2-methyl-2H-tetrazol-5-ylmethyl)-amide] 8-[((R)-1-phenyl-propyl)-amide]]	2500 nM	–
CCN(Cc1nnn(C)n1)C(=O)c1cc(C(=O)N[C@H](C)c2ccc(F)cc2)n2c1COCC2 [16rt, 3,4-Dihydro-1H-pyrrolo[2,1-c][1,4]oxazine-6,8-dicarboxylic acid 8-[ethyl-(2-methyl-2H-tetrazol-5-ylmethyl)-amide] 6-{[(R)-1-(4-fluoro-phenyl)-ethyl]-amide}]	–	inhibition at 5 µM: 72%
CC[C@@H](NC(=O)c1c(Br)c(C(=O)N2CCC[C@@H]2C)n2c1COCC2)c1ccc(C(F)(F)F)nc1 [16ru, 7-Bromo-6-((S)-2-methyl-pyrrolidine-1-carbonyl)-3,4-dihydro-1H-pyrrolo[2,1-c][1,4]oxazine-8-carboxylic acid [(R)-1-(6-trifluoromethyl-pyridin-3-yl)-propyl]-amide]	820 nM	–
CC[C@@H](NC(=O)c1c(C)c(C(=O)N2CCC[C@@H]2C)n2c1COCC2)c1ccc(C(F)(F)F)nc1 [16rx, 7-Methyl-6-((S)-2-methyl-pyrrolidine-1-carbonyl)-3,4-dihydro-1H-pyrrolo[2,1-c][1,4]oxazine-8-carboxylic acid [(R)-1-(6-trifluoromethyl-pyridin-3-yl)-propyl]-amide]	4700 nM	–
CC[C@@H](NC(=O)c1cc(C(=O)N2CCC[C@@H]2C)n2c1COCC2)c1ccccc1C(F)(F)F [16s, 6-((S)-2-Methyl-pyrrolidine-1-carbonyl)-3,4-dihydro-1H-pyrrolo[2,1-c][1,4]oxazine-8-carboxylic acid [(R)-1-(2-trifluoromethyl-phenyl)-propyl]-amide]	250 nM	–
CC[C@@H](NC(=O)c1cc(C(=O)N2CCC[C@@H]2C)n2c1COCC2)c1c(F)cccc1F [16t, 6-((S)-2-Methyl-pyrrolidine-1-carbonyl)-3,4-dihydro-1H-pyrrolo[2,1-c][1,4]oxazine-8-carboxylic acid [(R)-1-(2,6-difluoro-phenyl)-propyl]-amide]	44 nM	–
CC[C@@H](NC(=O)c1cc(C(=O)N2CCC[C@@H]2C)n2c1COCC2)c1ccc(F)cc1Cl [16u, 6-((S)-2-Methyl-pyrrolidine-1-carbonyl)-3,4-dihydro-1H-pyrrolo[2,1-c][1,4]oxazine-8-carboxylic acid [(R)-1-(2-chloro-4-fluoro-phenyl)-propyl]-amide]	49 nM	–
CC[C@@H](NC(=O)c1cc(C(=O)N2CCC[C@@H]2C)n2c1COCC2)c1ccc(F)cc1F [16v, 6-((S)-2-Methyl-pyrrolidine-1-carbonyl)-3,4-dihydro-1H-pyrrolo[2,1-c][1,4]oxazine-8-carboxylic acid [(R)-1-(2,4-difluoro-phenyl)-propyl]-amide]	110 nM	–
CC[C@@H](NC(=O)c1cc(C(=O)N2CCC[C@@H]2C)n2c1COCC2)c1cc(F)ccc1Cl [16w, 6-((S)-2-Methyl-pyrrolidine-1-carbonyl)-3,4-dihydro-1H-pyrrolo[2,1-c][1,4]oxazine-8-carboxylic acid [(R)-1-(2-chloro-5-fluoro-phenyl)-propyl]-amide]	40 nM	–

Source: patent publication US9284333B2, “Fused pyrroledicarboxamides and their use as pharmaceuticals” (SANOFI, priority 2012, dated 2016)
